Measurements as given in paper PMC5829242, “Chiral DOTA chelators as an improved platform for biomedical imaging and therapy applications” (Nature Communications, 2018).

Columns and labels:
[1] = Stability of Eu complexes on heating, at low pD and with Zn2+ (1H NMR); assay type: physicochemical
[2] = Gd complexes biodistribution studies (ICP-MS); assay type: in vivo, BALB/c mice; conditions: 0.025 mmol/kg i.v., 5-360 min post injection
Source text: Most commercially available Gd(III)-based MRI contrast agents are excreted rapidly and exclusively through the renal pathway. One of the few exceptions is an acyclic compound, Gd-EOB-DTPA, which has a mixed clearance (50% renal, 50% biliary) and is used for imaging of the liver and biliary system. Gd-BOPTA and MS-325 have predominantly renal elimination with <10% elimination through the biliary system. […] We illustrated with our studies that there is a significant variation in the biodistribution profiles despite the small structural differences of the chiral substituents (Supplementary Fig. 20). Gd biodistribution in BALB/c mice was measured by ICP-MS at 5, 15, 30, 60, 180 and 360 min following injection. […] Low levels of Gd(III) are present at 6 h post injection. […] The specific and unusual localisation of [GdL2]^− in the liver makes it a potential hepatobiliary-specific MRI contrast agent.
(§1) Gd concentrations were determined using an Agilent 8800-QQQ ICP-MS system. All samples were diluted with 0.1% Triton X-100 in 5% nitric acid. Lutetium internal standard was steadily introduced to the ICP-MS from an external source during the analysis. A linear calibration curve for each metal ranging from 0.1 ppb to 200 ppb was generated daily for the quantification.
Complexes [GdL1]^−, [GdL2]^− and [GdL5]^− were prepared by dissolving in saline solution, while [GdDOTA]^− (Dotarem) was diluted in saline solution. Eight-week-old male BALB/c mice (purchased from BioLASCO, Taiwan) each weighing approximately 25 g were administered with a single dose of 0.025 mmol/kg compound ([GdL1]^−, [GdL2]^−, [GdDOTA]^− and [GdL5]^−; 3 mice per compound per time point) in a 100 μl volume via lateral tail vein injection. The mice were then euthanized, and their blood collected by cardiac puncture at each time point (5, 15, 30, 60, 180 or 360 min post injection). A control group of 4 mice was treated with saline and killed at time point 0. The liver, lung, heart, kidneys, spleen and brain were removed from the animals and weighed. Gd content in tissue and blood samples was quantified via ICP-MS analysis. All experiments were performed in accordance with the NIH Guide for the Care and Use of Laboratory Animals and approved by the Institutional Animal Care and Use Committee of Massachusetts General Hospital or by the Department of Health of the Hong Kong Government and the Animal Subjects Ethics Sub-Committee of Hong Kong Polytechnic University.

[3] = 17O NMR water exchange (residence time of water co-ligand); assay type: physicochemical; conditions: 17O NMR at 11.7T
Description: (§2) Relaxivity measurements were performed on a Bruker mq60 Minispec at 1.41T and 37 °C. Longitudinal (T1) relaxation times were measured using an inversion recovery experiment with 10 inversion times of duration ranging between 0.05 × T1 and 5 × T1. Transverse (T2) relaxation times were measured using a CPMG pulse sequence. Relaxivity (r1, r2) was determined from the slope of a plot of 1/T1,2 vs [Gd] for at least 4 concentrations of Gd(III) (data shown in Supplementary Figs. 93–110). The T2 relaxation times of ^17O at 11.7T were estimated from the full-width at half-height of the H2^17O resonance at temperatures ranging from 278 to 368K. Reduced relaxation rates (1/T2r) were calculated by taking the difference of 1/T2 measured in the presence and absence of Gd(III) and dividing by the mole fraction of coordinated water molecules, assuming q = 1. […] However, at the high magnetic field used, and because of the very-fast water exchange rates observed, there was negligible contribution of T1e, and the data were refit to a two-parameter model using the water exchange rate at 310K (τM) and enthalpy of activation for water exchange (ΔH^‡) as adjustable parameters. The Gd-O hyperfine coupling constant, A/ħ, was assumed to be -3.8 × 10^6 rad s^−1 [57], [58]. Samples were prepared in neat H2O adjusted and enriched with a small amount of H2^17O.

[4] = Relaxivity measurements at 1.41T and 37 °C; assay type: physicochemical
Description: as §2

[5] = Ex vivo biodistribution 2 h post injection after MRI study (ICP-MS); assay type: in vivo, C57/Bl6 mice; conditions: 0.1 mmol per kg i.v.
Description: as §1
(§3) Imaging was performed at 4.7T using a small-bore animal scanner (Bruker Biospec). Pilot dynamic MRI studies were performed with [GdL1]^−, [GdL2A]^−, [GdL2B]^− and [GdL5]^−; n = 1 per compound. Six to eight weeks male C57/Bl6 mice were anaesthetised with isoflurane (1%–2%) and placed in a specially designed cradle with body temperature maintained at 37 °C. The tail vein was catherised for intravenous delivery of the contrast agent while the animal was positioned in the scanner. A pneumatic pillow was placed on the mouse to enable respiratory monitoring (SA Instruments), and the animal’s body temperature was maintained with warm air. The imaging protocol utilised a three-dimensional fast low angle shot (3D FLASH) with a […] flip angle, 9.00 ms repetition rate, 2.39 ms echo time, 4.8 cm × 2.4 cm × 2.4 cm field of view with a 0.3 mm isotropic resolution. Images were acquired with either 2 or 8 averages giving an acquisition time of 2 min or 8 min, respectively. Baseline images were acquired with both 2 and 8 averages, then the Gd complex (0.1 mmol per kg) was injected intravenously and the sequence with 2 averages was repeated for a period of 10 min to monitor blood clearance. At 10, 30, 45, 60, 75 and 90 min after probe injection, the sequence with 8 averages was repeated to monitor the clearance of contrast from the liver and kidneys. After imaging was performed, the mouse was removed from the scanner and euthanized at 2 h post injection and the tissues were harvested for Gd quantification by ICP-MS.

[6] = In vivo dynamic T1-weighted MR imaging at 4.7T; design: species or system C57/Bl6 mice; conditions: 0.1 mmol per kg i.v., 4.7 tesla, n = 1
Description: Dynamic T1-weighted MR imaging at 4.7 tesla was performed with C57/Bl6 mice before, during, and after 0.1 mmol per kg injection of each compound (Fig. 7).
as §3

[7] = Stability of Yb complexes in 1N DCl by 1H NMR; assay type: physicochemical
Description: (§4) The stability of CuDOTA and CuL2 was compared by UV-Visible spectra. […] Because the ionic radii of Lu(III) is very close to Yb(III), so we used the Yb(III) as a surrogate to study the stability. […] Additionally, we examined in vitro serum stability of ^64CuL2 at 37 °C.

[8] = In vitro serum stability of 64CuL2; assay type: in vitro ADME; conditions: 37 °C
Description: as §4

SMILES: CC[C@H]1CN(CC(=O)[O-])[C@@H](CC)CN(CC(=O)[O-])[C@@H](CC)CN(CC(=O)[O-])[C@@H](CC)CN1CC(=O)[O-].[Eu+3] [[EuL2A]^−]
- stability with Zn2+ ([1]; 1 equivalent of Zn^2+): nor did the presence of 1 equivalent of Zn^2+ caused any instability
- inertness upon heating ([1]; 90 °C for 3 days, pD 7.0 ([EuL2A]) and 6.0 ([EuL2B])): extreme inertness
- racemization upon heating ([1]; heating for 3 days at pD 1.0): no signs of racemization

SMILES: NCCCC[C@H]1CN(CC(=O)[O-])[C@@H](CCCCN)CN(CC(=O)[O-])[C@@H](CCCCN)CN(CC(=O)[O-])[C@@H](CCCCN)CN1CC(=O)[O-].[Gd+3] [[GdL5]^−]
- Gd biodistribution / elimination profile [2]: mainly in the kidney and showed no tendency of clearance after 6 h
- ΔH^‡, enthalpy change of activation of water exchange [3]: 18 ± 2.5 kJ/mol
- τM^310K, mean residence time of the water co-ligand at 310 K ([3]; 310 K, q = 1 assumed): 16 ± 0.8 ns
- r1 relaxivity ([4]; 4.5% w/v HSA (1.4T)): 5.1 mM⁻¹ s⁻¹
- r1 relaxivity ([4]; Human Plasma (1.4T)): 5.1 mM⁻¹ s⁻¹
- r1 relaxivity ([4]; Water (1.4T)): 4.1 mM⁻¹ s⁻¹
- Gd concentration in blood [5]: 0.80 nmol Gd per gram tissue
- Gd concentration in gall bladder [5]: 60.17 nmol Gd per gram tissue
- Gd concentration in heart [5]: 2.18 nmol Gd per gram tissue
- Gd concentration in intestines [5]: 2.68 nmol Gd per gram tissue
- Gd concentration in kidney [5]: over 90 nmol Gd per gram tissue
- Gd concentration in liver [5]: 2.01 nmol Gd per gram tissue
- Gd concentration in lung [5]: 1.49 nmol Gd per gram tissue
- Gd concentration in muscle [5]: 2.97 nmol Gd per gram tissue
- Gd concentration in spleen [5]: 4.43 nmol Gd per gram tissue
- Gd concentration in stomach [5]: 1.11 nmol Gd per gram tissue
- Gd concentration in tail [5]: 2.28 nmol Gd per gram tissue
- Gd concentration in kidney ([5]; listed as GdL5): 93.23 nmol Gd per gram tissue
- MR enhancement of liver and gall bladder [6]: very little enhancement in the liver
- MR signal in the kidneys over time / at 60 min post injection [6]: renal cortex remained strongly enhanced

SMILES: O=C([O-])CN1CCN(CC(=O)[O-])CCN(CC(=O)[O-])CCN(CC(=O)[O-])CC1.[Yb+3] [[YbDOTA]^−, reference compound]
- decomplexation [7]: decomplexed very fast

SMILES: CC[C@H]1CN(CC(=O)[O-])[C@@H](CC)CN(CC(=O)[O-])[C@@H](CC)CN(CC(=O)[O-])[C@@H](CC)CN1CC(=O)[O-].[Yb+3] [[YbL2]^−]
- decomplexation [7]: no obvious decomplexation

SMILES: CC[C@H]1CN(CC(=O)O)[C@@H](CC)CN(CC(=O)[O-])[C@@H](CC)CN(CC(=O)O)[C@@H](CC)CN1CC(=O)[O-].[64Cu+2] [^64CuL2]
- decrease of radiochemical purity ([8]; 1 h of incubation): less than 0.3%
- decrease of radiochemical purity ([8]; 24 h of incubation): < 6.3%
